In paper PMC11898701, “Evaluating Therapeutic Efficacy of the Vascular Disrupting Agent OXi8007 Against Kidney Cancer in Mice” (Cancers, 2025):
Where two headings read alike, the source gives them in different places. Marks after values point to notes of the source that are not given here.

Assays:
[1] = Blood pressure assessment (CODA system); assay type: in vivo, mouse
Experimental: Blood pressure was measured using a CODA system (Kent Scientific, Torrington, CT, USA) on 5 adult male BALB/c mice. Mice were anesthetized with 2% isoflurane in oxygen at 1 dm^3/min and placed on the CODA IR heating pad with a feedback rectal temperature probe and nosecone to maintain anesthesia. An occlusion cuff and VPR cuff were placed on the tail. The baseline measurement was recorded over 30 min, then OXi8007 (250 mg/kg or 325 mg/kg) was administered IP and the blood pressure measurement resumed for 45 min. As positive and negative controls, hydralazine (1 mg/kg) or saline, respectively, were injected IP.

Renca-luc cells = assay: Renca-luc sulforhodamine B (SRB) assay, cell growth inhibition; assay type: cell-based; conditions: Mus musculus; Renca-luc cells, SRB, 48 h treatment; read-out: IC50
Experimental: (§1) In two independent trials of Renca and Renca-luc cells were plated in triplicate at 8000 cells/well into 96-well plates and incubated for 24 h at 37 °C in a humidified incubator with 5% CO2 followed by a 48 h treatment period at ten-fold dilutions of the drug.

Renca cells = assay: Renca sulforhodamine B (SRB) assay, cell growth inhibition; assay type: cell-based; conditions: Mus musculus; Renca cells, SRB, 48 h treatment; read-out: IC50
Experimental: as §1

[2] = Pharmacokinetic study in Renca-luc tumor-bearing BALB/c mice; assay type: in vivo, mouse; conditions: for Tmax: read-out: Tmax (converted)
Experimental: Plasma and tissues were harvested at various time points (20 min to 16 h) from Renca-luc tumor-bearing BALB/c male mice following the administration of OXi8007 IP. Mice treated with 250 mg/kg were sacrificed at 20 min (n = 3), 1 h (n = 4), 2 h (n = 4), 4 h (n = 4), 8 h (n = 4), and 16 h (n = 4). Mice were anesthetized, exsanguinated, the tissues were blotted, and then they were weighed and frozen in liquid nitrogen. Homogenized plasma and tissue samples were extracted with acetonitrile with a bead mill; internal standard (CA4 or tri-labeled ^13C-OXi8006) was added to each sample to reach a final concentration of 10 ppb. Samples were centrifuged twice to remove precipitated proteins (16,260× g for 10 min at 4 °C). Clear supernatant was transferred into MS vials, and formic acid was added to a final concentration of 0.1% for LC-MS analysis. […] Mobile phase A consisted of 0.1% v/v formic acid in water, and mobile phase B was acetonitrile, which was mixed by the binary pump with an elution gradient at a flow rate of 0.6 mL/min. Data were analyzed using Xcalibur 4.6 software based on exact masses, and Phoenix WinNonlin 8.5.0 software was used to determine the pharmacokinetic parameters based on a non-compartmental model.

[3] = male, BALB/c, mouse, in vivo, ip, 250 mg/kg, brain, after OXi8007 250 mg/kg IP
[4] = male, BALB/c, mouse, in vivo, ip, 250 mg/kg, heart, after OXi8007 250 mg/kg IP
[5] = male, BALB/c, mouse, in vivo, ip, 250 mg/kg, left kidney, after OXi8007 250 mg/kg IP
[6] = male, BALB/c, mouse, in vivo, ip, 250 mg/kg, liver, after OXi8007 250 mg/kg IP
[7] = male, BALB/c, mouse, in vivo, ip, 250 mg/kg, lungs, after OXi8007 250 mg/kg IP
[8] = male, BALB/c, mouse, in vivo, ip, 250 mg/kg, plasma, after OXi8007 250 mg/kg IP
[9] = male, BALB/c, mouse, in vivo, ip, 250 mg/kg, spleen, after OXi8007 250 mg/kg IP
[10] = male, BALB/c, mouse, in vivo, ip, 250 mg/kg, tumor and right kidney, after OXi8007 250 mg/kg IP
[11] = male, BALB/c, mouse, ip, glucuronide metabolite, brain, after OXi8007 250 mg/kg
[12] = male, BALB/c, mouse, ip, glucuronide metabolite, heart, after OXi8007 250 mg/kg
[13] = male, BALB/c, mouse, ip, glucuronide metabolite, left kidney, after OXi8007 250 mg/kg
[14] = male, BALB/c, mouse, ip, glucuronide metabolite, liver, after OXi8007 250 mg/kg
[15] = male, BALB/c, mouse, ip, glucuronide metabolite, lungs, after OXi8007 250 mg/kg
[16] = male, BALB/c, mouse, ip, glucuronide metabolite, plasma, after OXi8007 250 mg/kg
[17] = male, BALB/c, mouse, ip, glucuronide metabolite, spleen, after OXi8007 250 mg/kg
[18] = male, BALB/c, mouse, ip, glucuronide metabolite, tumor, after OXi8007 250 mg/kg

**Q.** What does the source list for NNc1nncc2ccccc12 [hydralazine, reference compound]?
**A.** Hypotension (Δ BP) ([1]; 1 mg/kg): ~ 35 mmHg; Drop in diastolic blood pressure (Δ) ([1]; 1 mg/kg IP): 31 mmHg; Drop in mean blood pressure (Δ) ([1]; 1 mg/kg IP): 34 mmHg; Drop in systolic blood pressure (Δ) ([1]; 1 mg/kg IP): 40 mmHg; Drop in blood pressure ([1]; 1 mg/kg IP, positive control): about 30%

**Q.** With COc1ccc(/C=C\c2cc(OC)c(OC)c(OC)c2)cc1O [CA4, combretastatin A-4, reference compound] as the compound, how does the IC50 (Renca-luc cells) read?
**A.** 109 ± 23 nM

**Q.** And the IC50 (Renca cells)?
**A.** 48 ± 2 nM

**Q.** For COc1ccc2c(C(=O)c3cc(OC)c(OC)c(OC)c3)c(-c3ccc(OC)c(O)c3)[nH]c2c1 [OXi8006], which AUC ([2]; brain, after OXi8007 250 mg/kg IP) is on record?
**A.** 0.54 ng·h/mg

**Q.** And the AUC ([2]; heart, after OXi8007 250 mg/kg IP)?
**A.** 9.04 ng·h/mg

**Q.** What about the AUC ([2]; left kidney, after OXi8007 250 mg/kg IP) of the same compound?
**A.** 8.72 ng·h/mg

**Q.** What about the AUC ([2]; liver, after OXi8007 250 mg/kg IP) of the same compound?
**A.** 18.19 ng·h/mg

**Q.** What about the AUC ([2]; lungs, after OXi8007 250 mg/kg IP) of the same compound?
**A.** 9.45 ng·h/mg

**Q.** What about the half-life [2, 3] of the same compound?
**A.** 1.71 h

**Q.** And the Cmax ([2]; male, BALB/c, mouse, in vivo, ip, 250 mg/kg, brain, after OXi8007 250 mg/kg IP, read-out: Cmax)?
**A.** 220 ng/g

**Q.** What about the Tmax [2, 3] of the same compound?
**A.** 0.333 h

**Q.** What about the half-life [2, 4] of the same compound?
**A.** 2.02 h

**Q.** And the Cmax ([2]; male, BALB/c, mouse, in vivo, ip, 250 mg/kg, heart, after OXi8007 250 mg/kg IP, read-out: Cmax)?
**A.** 5310 ng/g

**Q.** And the Tmax [2, 4]?
**A.** 0.333 h

**Q.** And the half-life [2, 5]?
**A.** 1.73 h

**Q.** And the Cmax ([2]; male, BALB/c, mouse, in vivo, ip, 250 mg/kg, left kidney, after OXi8007 250 mg/kg IP, read-out: Cmax)?
**A.** 5860 ng/g

**Q.** What about the Tmax [2, 5] of the same compound?
**A.** 0.333 h

**Q.** And the half-life [2, 6]?
**A.** 2.25 h

**Q.** And the Cmax ([2]; male, BALB/c, mouse, in vivo, ip, 250 mg/kg, liver, after OXi8007 250 mg/kg IP, read-out: Cmax)?
**A.** 9160 ng/g

**Q.** And the Tmax [2, 6]?
**A.** 0.333 h

**Q.** What about the half-life [2, 7] of the same compound?
**A.** 2.56 h

**Q.** And the Cmax ([2]; male, BALB/c, mouse, in vivo, ip, 250 mg/kg, lungs, after OXi8007 250 mg/kg IP, read-out: Cmax)?
**A.** 4180 ng/g

**Q.** What about the Tmax [2, 7] of the same compound?
**A.** 0.333 h

**Q.** What about the half-life [2, 8] of the same compound?
**A.** 1.98 h

**Q.** And the half-life ([2]; male, BALB/c, mouse, in vivo, ip, 250 mg/kg, plasma, after OXi8007 250 mg/kg IP, Renca-luc tumor-bearing BALB/c mice)?
**A.** 1.99 h

**Q.** And the Cmax ([2]; male, BALB/c, mouse, in vivo, ip, 250 mg/kg, plasma, after OXi8007 250 mg/kg IP, read-out: Cmax)?
**A.** 29000 ng/mL

**Q.** And the Tmax [2, 8]?
**A.** 0.333 h

**Q.** And the half-life [2, 9]?
**A.** 1.72 h

**Q.** What about the Cmax ([2]; male, BALB/c, mouse, in vivo, ip, 250 mg/kg, spleen, after OXi8007 250 mg/kg IP, read-out: Cmax) of the same compound?
**A.** 4450 ng/g

**Q.** What about the Tmax [2, 9] of the same compound?
**A.** 0.333 h

**Q.** And the half-life [2, 10]?
**A.** 4.23 h

**Q.** What about the Cmax ([2]; male, BALB/c, mouse, in vivo, ip, 250 mg/kg, tumor and right kidney, after OXi8007 250 mg/kg IP, read-out: Cmax) of the same compound?
**A.** 2390 ng/g

**Q.** And the Tmax [2, 10]?
**A.** 1 h

**Q.** What about the AUC ([2]; plasma, after OXi8007 250 mg/kg IP, zero to last quantifiable concentration) of the same compound?
**A.** 47 ^# h × ng/µL

**Q.** And the AUC ([2]; spleen, after OXi8007 250 mg/kg IP)?
**A.** 9.88 ng·h/mg

**Q.** What about the AUC ([2]; tumor and right kidney, after OXi8007 250 mg/kg IP) of the same compound?
**A.** 10.24 ng·h/mg

**Q.** Which results are given for COc1ccc2c(C(=O)c3cc(OC)c(OC)c(OC)c3)c(-c3ccc(OC)c(O[C@@H]4O[C@H](C(=O)O)[C@@H](O)[C@H](O)[C@H]4O)c3)[nH]c2c1 [OXi8006 Glucuronide]?
**A.** Cmax ([2]; glucuronide metabolite, brain, counts per tissue sample (40 mg), after OXi8007 250 mg/kg): 0.95 counts × 10^−6; AUC ([2]; glucuronide metabolite, brain, after OXi8007 250 mg/kg): 4.13 h × counts × 10^−6; Cmax ([2]; glucuronide metabolite, heart, counts per tissue sample (40 mg), after OXi8007 250 mg/kg): 9.8 counts × 10^−6; AUC ([2]; glucuronide metabolite, heart, after OXi8007 250 mg/kg): 24.52 h × counts × 10^−6; Cmax ([2]; glucuronide metabolite, left kidney, counts per tissue sample (40 mg), after OXi8007 250 mg/kg): 87.2 counts × 10^−6; AUC ([2]; glucuronide metabolite, left kidney, after OXi8007 250 mg/kg): 180.6 h × counts × 10^−6; Cmax ([2]; glucuronide metabolite, liver, counts per tissue sample (40 mg), after OXi8007 250 mg/kg): 28.23 counts × 10^−6; AUC ([2]; glucuronide metabolite, liver, after OXi8007 250 mg/kg): 128.7 h × counts × 10^−6; Cmax ([2]; glucuronide metabolite, lungs, counts per tissue sample (40 mg), after OXi8007 250 mg/kg): 20.87 counts × 10^−6; AUC ([2]; glucuronide metabolite, lungs, after OXi8007 250 mg/kg): 69.33 h × counts × 10^−6; Cmax ([2]; glucuronide metabolite, plasma, counts per mL, no precise calibration, after OXi8007 250 mg/kg): 1266 counts × 10^−6; AUC ([2]; glucuronide metabolite, plasma, no precise calibration, after OXi8007 250 mg/kg): 3490 h × counts × 10^−6; Cmax ([2]; glucuronide metabolite, spleen, counts per tissue sample (40 mg), after OXi8007 250 mg/kg): 6.33 counts × 10^−6; AUC ([2]; glucuronide metabolite, spleen, after OXi8007 250 mg/kg): 18.39 h × counts × 10^−6; Cmax ([2]; glucuronide metabolite, tumor, counts per tissue sample (40 mg), after OXi8007 250 mg/kg): 11.65 counts × 10^−6; AUC ([2]; glucuronide metabolite, tumor, after OXi8007 250 mg/kg): 118.22 h × counts × 10^−6; half-life [2, 11]: 1.15 h; Tmax [2, 11]: 1 h; half-life [2, 12]: 1.61 h; Tmax [2, 12]: 1 h; half-life [2, 13]: 3.75 h; Tmax [2, 13]: 1 h; half-life [2, 14]: 3.37 h; Tmax [2, 14]: 1 h; half-life [2, 15]: 2.05 h; Tmax [2, 15]: 1 h; half-life [2, 16]: 1.95 h; Tmax [2, 16]: 1 h; half-life [2, 17]: 2.2 h; Tmax [2, 17]: 1 h; half-life [2, 18]: 5.87 h; Tmax [2, 18]: 4 h
